According to ChEMBL document CHEMBL5579888, “A Comparative Study on the DNA Interactions and Biological Activities of Benzophenanthridine and Protoberberine Alkaloids” (J Nat Prod, 2024):
pEC50, pIC50, pKd: −log10 of the molar value. Calls of active or inactive are those of the source. The calls are words filed in the database; no cut-off is given here.

How the values were obtained:
[1] = molecular target: dsDNA; assay: Binding affinity to double stranded DNA AT12 (unknown origin) incubated for 0.5 hrs in presence of different concentration DNA by fluorescence spectra analysis; type: nucleic-acid assay
[2] = tested on: Quadruplex DNA; assay: Binding affinity to human G4-quadruplex Pu27 DNA 5'- TGGGGAGGGTGGGGAGGGTGGGGAAGG-3' at 20 uM by UV-Visible absorption spectroscopic analysis; type: nucleic-acid assay
[3] = tested on: A-375; assay: Inhibition of RNA synthesis in human A-375 cells at 5 uM incubated for 24 hrs by EU incorporation based flow cytometry analysis; type: functional, cell-based
[4] = molecular target: dsDNA; assay: Displacement of Hoechst 33342 from double stranded DNA ssab (unknown origin) incubated for 0.5 hrs by SpectraMax M2 microplate reader analysis; type: nucleic-acid assay
[5] = molecular target: dsDNA; assay: Binding affinity to double stranded DNA AT15-2AT (unknown origin) incubated for 0.5 hrs in presence of different concentration DNA by fluorescence spectra analysis; type: nucleic-acid assay
[6] = molecular target: Quadruplex DNA; assay: Displacement of ThT from human G4-quadruplex KRAS DNA 5'- AGGGCGGTGTGGGAAGAGGGAAGAGGGGGAGG-3' incubated for 0.5 hrs by SpectraMax M2 microplate reader analysis; type: nucleic-acid assay
[7] = tested on: Quadruplex DNA; assay: Binding affinity to human G4-quadruplex VEGF DNA 5'- GGGCGGGCCGGGGGCGGG-3' assessed as change in fluorescence intensity at 1 uM incubated for 0.5 hrs by fluorescence spectra analysis; type: nucleic-acid assay
[8] = tested on: Calf thymus DNA; assay: Displacement of Hoechst 33342 from calf thymus DNA incubated for 0.5 hrs by SpectraMax M2 microplate reader analysis; type: nucleic-acid assay, Bos taurus
[9] = molecular target: Quadruplex DNA; assay: Binding affinity to human G4-quadruplex Bcl2 DNA 5'- CGGGCGCGGGAGGAAGGGGGCGGGAGC-3' assessed as change in fluorescence intensity at 1 uM incubated for 0.5 hrs in presence of different concentrations of DNA by fluorescence spectra analysis; type: nucleic-acid assay
[10] = molecular target: Quadruplex DNA; assay: Displacement of ThT from human G4-quadruplex Pu27 DNA 5'- TGGGGAGGGTGGGGAGGGTGGGGAAGG-3' incubated for 0.5 hrs by SpectraMax M2 microplate reader analysis; type: nucleic-acid assay
[11] = tested on: A-375; assay: Induction of DNA damage in human A-375 cells assessed as appearance of long DNA tails at 5 uM incubated for 24 hrs by comet assay; type: functional, cell-based
[12] = molecular target: Quadruplex DNA; assay: Displacement of ThT from human G4-quadruplex c-kit2 DNA 5'- CGGGCGGGCGCGAGGGAGGGT-3' incubated for 0.5 hrs by SpectraMax M2 microplate reader analysis; type: nucleic-acid assay
[13] = tested on: Quadruplex DNA; assay: Binding affinity to human G4-quadruplex Bcl2 DNA 5'- CGGGCGCGGGAGGAAGGGGGCGGGAGC-3' at 20 uM by UV-Visible absorption spectroscopic analysis; type: nucleic-acid assay
[14] = tested on: A549/TR; assay: Antiproliferative activity against human A549/Taxol cells assessed as reduction in cell viability incubated for 48 hrs by CCK-8 assay; type: functional, cell-based
[15] = tested on: dsDNA; assay: Binding affinity to double stranded DNA AT9 (unknown origin) incubated for 0.5 hrs in presence of different concentration DNA by fluorescence spectra analysis; type: nucleic-acid assay
[16] = molecular target: Quadruplex DNA; assay: Binding affinity to human G4-quadruplex KRAS DNA 5'- AGGGCGGTGTGGGAAGAGGGAAGAGGGGGAGG-3' assessed as change in fluorescence intensity at 1 uM incubated for 0.5 hrs in presence of different concentrations of DNA by fluorescence spectra analysis; type: nucleic-acid assay
[17] = tested on: LoVo; assay: Antiproliferative activity against human LoVo cells assessed as reduction in cell viability incubated for 48 hrs by CCK-8 assay; type: functional, cell-based
[18] = tested on: Quadruplex DNA; assay: Binding affinity to human G4-quadruplex Oxy28 DNA 5'- GGGGTTTTGGGGTTTTGGGGTTTTGGGG -3' at 10 uM by CD spectra analysis; type: nucleic-acid assay
[19] = tested on: A-375; assay: Induction of apoptosis in human A-375 cells assessed assessed as viable cells at 5 uM incubated for 24 hrs by Annexin V-Elab Fluor 647/propidium iodide staining based flow cytometry (reference value: 91.1 %); type: functional; conditions: read-out: Activity
[20] = molecular target: Quadruplex DNA; assay: Binding affinity to human G4-quadruplex 22AG DNA 5'- AGGGTTAGGGTTAGGGTTAGGG -3' assessed as change in fluorescence intensity at 1 uM incubated for 0.5 hrs in presence of different concentrations of DNA by fluorescence spectra analysis; type: nucleic-acid assay
[21] = tested on: PC-3; assay: Antiproliferative activity against human PC-3 cells assessed as reduction in cell viability incubated for 24 hrs by CCK-8 assay; type: functional, cell-based; conditions: PC-3, 24 h
[22] = tested on: dsDNA; assay: Binding affinity to double stranded DNA ssab (unknown origin) assessed as change in fluorescence intensity at 1 uM incubated for 0.5 hrs in presence of different concentrations of DNA by fluorescence spectra analysis; type: nucleic-acid assay
[23] = tested on: A2780/Taxol; assay: Antiproliferative activity against human A2780T cells assessed as reduction in cell viability incubated for 48 hrs by CCK-8 assay; type: functional, cell-based
[24] = molecular target: dsDNA; assay: Binding affinity to double stranded DNA ssab2 (unknown origin) incubated for 0.5 hrs in presence of different concentration DNA by fluorescence spectra analysis; type: nucleic-acid assay
[25] = tested on: Quadruplex DNA; assay: Binding affinity to human G4-quadruplex VEGF DNA 5'- GGGCGGGCCGGGGGCGGG-3' at 20 uM by UV-Visible absorption spectroscopic analysis; type: nucleic-acid assay
[26] = molecular target: Quadruplex DNA; assay: Displacement of ThT from human G4-quadruplex Oxy28 DNA 5'- GGGGTTTTGGGGTTTTGGGGTTTTGGGG -3' incubated for 0.5 hrs by SpectraMax M2 microplate reader analysis; type: nucleic-acid assay
[27] = tested on: Quadruplex DNA; assay: Binding affinity to human G4-quadruplex Oxy28 DNA 5'- GGGGTTTTGGGGTTTTGGGGTTTTGGGG -3' assessed as change in fluorescence intensity at 1 uM incubated for 0.5 hrs by fluorescence spectra analysis; type: nucleic-acid assay
[28] = tested on: Quadruplex DNA; assay: Binding affinity to human G4-quadruplex 22AG DNA 5'- AGGGTTAGGGTTAGGGTTAGGG -3' at 20 uM by UV-Visible absorption spectroscopic analysis; type: nucleic-acid assay

Structure (SMILES) | pEC50 [1] | Activity [2] | inhibition [3] | DC50 [4] [nM] | pEC50 [5] | DC50 [6] [nM] | Activity [7] | DC50 [8] [nM] | pKd [9] | DC50 [10] [nM] | Activity [11] | DC50 [12] [nM] | Activity [13] | pKd [16] | Activity [18] | viability at 5 µM [19] [%] | Activity [22] | pEC50 [24] | Activity [25] | DC50 [26] [nM] | other results
COc1ccc2cc3[n+](cc2c1OC)CCc1cc2c(cc1-3)OCO2 [BERBERINE] | 6.89 | Active | inactive | 22100 | 6.82 | 2640 | Active | 30700 | 5.61 | 540 | inactive | 690 | Active | 5.72 | inactive | 35.4 | inactive | 7.00 | Active | 3100 | pIC50 [14]: ≤ 4.61; Activity [15]: inactive; pIC50 [17]: ≤ 4.61; pKd [20]: 4.81; pIC50 [21]: ≤ 4.61; pIC50 [23]: ≤ 4.61; Activity [27]: Active; Activity [28]: Active
COc1ccc2c(c[n+](C)c3c4cc5c(cc4ccc23)OCO5)c1OC [CHELERYTHRINE] | 5.68 | Active | Active | 3490 | 5.95 | 850 | Active | 6700 | 5.24 | 480 | Active | 550 | Active | 5.97 | inactive | 56 | Active | 5.97 | Active | 1150 | Activity [15]: inactive; Activity [20]: inactive; Activity [27]: Active; Activity [28]: Active
c1c2c(cc3c1OCO3)-c1cc3ccc4c(c3c[n+]1CC2)OCO4 [COPTISINE] | 4.73 | Active | inactive | 23000 | 5.41 | 380 | Active | 31400 | 5.94 | 140 | inactive | 170 | Active | 5.95 | inactive | 0.022 | inactive | 5.14 | Active | 580 | pIC50 [14]: ≤ 4.61; pEC50 [15]: 5.15; pIC50 [17]: ≤ 4.61; pKd [20]: 5.23; pIC50 [21]: ≤ 4.61; pIC50 [23]: ≤ 4.61; Activity [27]: Active; Activity [28]: Active
C[n+]1cc2c3c(ccc2c2ccc4cc5c(cc4c21)OCO5)OCO3 [SANGUINARIUM] | 5.38 | Active | Active | 3210 | 5.97 | 580 | Active | 5870 | 4.96 | 260 | Active | 250 | Active | 5.55 | inactive | 20.4 | Active | 5.79 | Active | 740 | Activity [15]: inactive; Activity [20]: inactive; Activity [27]: Active; Activity [28]: Active
